According to US10413583B2, “Synthetic substrates for enzymes that catalyze reactions of modified cysteines and related methods” (The University of Chicago, priority 2016, dated 2019):

Tests used:
[1] = Log P analysis of DPP-1/4/5; type: physicochemical; conditions: 1-octanol / Hepes buffer
Method: 2 μL of 1 mM of DPP-1/4/5 was dissolved in 500 μL of Hepes buffer in two 1.5 mL tubes. To one tube, 500 μL of 1-octanol was added and the tube was shaken for 10 min followed by keeping it undisturbed for 10 min. Then, 10 μL of aqueous phase from each tube was placed in a 96 well plate reader. To this, 190 μL of 1M NaOH was added and fluorescence intensities (λex 490/20 nm, λem 545/20 nm, Gain 80, read from bottom with height 4.5 mm, and sweep method) were measured at 15 second time intervals for 1 hr at room temperature. The fluorescence read out at saturation was used to calculate Log P values by following equation: log P=log(Foct/Faq) Foct=Ftotal−Faq where: Foct=Fluorescence of 1-octanol fraction; Faq=Fluorescence of the aqueous fraction after treatment with 1-octanol, and Ftotal=Fluorescence of the aqueous fraction with no treatment with 1-octanol.

[2] = Water solubility of probes (stated in words); type: physicochemical
APT2 = biological target: T1, APT2 (Homo sapiens, UniProt O95372); assay: Enzyme kinetics analysis of DPP-5 with APT2; type: biochemical; conditions: APT2 50 nM
T1 construct: His-tag; made in house; host or cells: E. coli ROSETTA DE3
Method: (§1) 150 μL of 1 M DTT in HEPES buffer was added to different concentrations of 150 μL DPP-5 and then the stable fluorescence intensities of totally deacylated product were measured by the methods described above. Fluorescence intensity of per molar deacylated-product was then calculated by linear least-squares fitting of plots of fluorescence vs. concentration. For Michaelis-Menten constant, in vitro kinetics curves were obtained for different final concentrations of DPP-5 in HEPES with 50 nM APT1 or APT2. The fluorescence intensities measured were then normalized to the concentrations of product by fluorescence-intensity-permolar-product. A Lineweaver-Burk plot was used to calculate the Michaelis constant, KM, and the maximum velocity, Vmax, which is proportional to kcat by concentration of APT1 or APT2. All fits have R^2 values of >0.99.

APT1 = biological target: T2, APT1 (Homo sapiens, UniProt O75608); assay: Enzyme kinetics analysis of DPP-5 with APT1; type: biochemical; conditions: APT1 50 nM
T2 construct: His-tag; made in house; host or cells: E. coli ROSETTA DE3
Method: as §1

HEPG2 cells = assay: Fluorescence imaging of RDP-1 with HEPG2 cells (PalmB, palmitate); type: cell-based, human; conditions: 40 μM PalmB 30 min, 1 μM RDP-1
Method: HEPG2 were plated with […] of DMEM (Gibco, Gaithersburg, Md., United States of America; High Glucose, Glutamax, 10% FBS) a four well chambered imaging dish (D35C4-20-1.5-N, Cellvis, Mountain View, Calif., United States of America) which were precoated with 4 μg Poly-D-lysine (30-70 KDa, Alfa Aesar, Haverhill, Mass., United States of America) for 2 h at room temperature or overnight at 4° C. and grown to ca. 80% confluence prior to imaging. 30 min before the addition of the RDP, the cell culture media was removed and cells were washed with 500 μL of serum-free DMEM (Gibco, Gaithersburg, Md., United States of America; High Glucose, Glutamax, no FBS). The media was then replaced with 500 μL of serum-free DMEM containing 100 nM Mitotracker Deep Red (Thermo Fisher Scientific, Waltham, Mass., United States of America) to assist in focusing and processing) and either 0.1% DMSO carrier as a control or Palm B in DMSO and incubated for 30 min at 37° C. and 5% CO2. The media was removed, the cells were washed with 500 μL of Live Cell Imaging Solution (Thermo Fisher Scientific, Waltham, Mass., United States of America), and 500 μL of 1 μM RDP-1 along with the Palm B or DMSO as control in Live Cell Imaging Solution was added to each well. […]

T1 sequence (O95372 whole entry): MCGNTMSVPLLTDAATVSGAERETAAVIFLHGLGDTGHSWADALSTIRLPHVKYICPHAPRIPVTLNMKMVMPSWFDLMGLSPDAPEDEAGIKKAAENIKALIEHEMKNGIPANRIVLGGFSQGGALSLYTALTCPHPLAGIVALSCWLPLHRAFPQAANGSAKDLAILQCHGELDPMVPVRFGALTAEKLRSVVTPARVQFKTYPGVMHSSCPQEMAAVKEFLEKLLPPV
T2 sequence (O75608 whole entry): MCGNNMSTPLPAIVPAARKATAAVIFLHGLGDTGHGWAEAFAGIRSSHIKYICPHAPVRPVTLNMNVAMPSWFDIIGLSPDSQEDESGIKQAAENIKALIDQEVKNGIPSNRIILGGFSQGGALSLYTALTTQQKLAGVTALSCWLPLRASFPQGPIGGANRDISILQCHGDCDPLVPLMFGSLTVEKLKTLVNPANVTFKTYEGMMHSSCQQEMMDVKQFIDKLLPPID

| Structure (SMILES) | LogP [1] | water solubility [2] | Kcat (APT2) [s⁻¹] | Km (APT2; Lineweaver-Burk) [µM] | Kcat (APT1) [s⁻¹] | Km (APT1; Lineweaver-Burk) [µM] | decrease in deacylation of RDP-1 (HEPG2 cells) |
| --- | --- | --- | --- | --- | --- | --- | --- |
| CCCCCCCCCCCCCCCC(=O)SC[C@@H](C(=O)NC)N(C)C(=O)Oc1ccc2c(c1)Oc1cc(N3CCN(C(=O)CCC(=O)O)CC3)ccc1C21OC(=O)c2ccccc21 (stereo partly shown) [DPP-5] | 0.79 | relatively higher water solubility | 0.066 | 2.1 | 0.044 | 1.6 | – |
| CCCCCCCCCC[C@@H]1C(=O)O[C@H]1CCc1ccc(OC)c(OC)c1 [PalmB, palmostatin B] | – | – | – | – | – | – | about 60% |
